Experimental data published in article PMC6143625, “A high throughput screen for next-generation leads targeting malaria parasite transmission” (Nature Communications, 2018).
Where “and” joins values, the source holds several entries; their conditions need not be identical. Equal values may be shown once.

How the values were obtained:
[1] = system: P. falciparum transmission to Anopheles stephensi mosquitoes; test: P. falciparum standard membrane-feeding assay (SMFA), luciferase oocyst readout; format: in vivo, Plasmodium falciparum; conditions: 10 µM; for prevalence of infection, % of the DMSO control / mean normalised luciferase intensity: indirect mode; for mean normalised luciferase intensity: 24 h gametocyte incubation, oocysts 8 days later; for Average oocyst intensity / Prevalence: mode indirect, per experiment
Protocol: SMFAs were performed commercially by TropiQ Health Sciences (Nijmegen, The Netherlands)[26]. Cultures of mature stage V gametocytes of P. falciparum expressing a GFP-Luciferase fusion protein under the control of the hsp70 promoter were treated with DMSO or 10 µM of test compound for 24 h (indirect mode). They were then mixed with uninfected erythrocytes and pelleted. The cell pellet was resuspended in human serum to form the blood meal and fed to Anopheles stephensi mosquitoes. […] Eight days after infection, mosquitoes were individually processed and their lysate assessed for luciferase activity in comparison to uninfected mosquitoes.

[2] = Stability analysis of DDD599/BPCA (pH buffers, simulated gastric fluid, glutathione); format: physicochemical
Protocol: (§1) DMPK analyses were performed by the Dundee University Drug Discovery Unit and BPCA/DDD599 stability analysis were undertaken by chemists at GlaxoSmithKline using in-house, standardised approaches.
123 Supplementary Table 1. Stability analysis of DDD599/BPCA pH10 Ox pH10 pH6 Ox pH6 pH4 Ox pH4 SGF Ox SGF GSH
Additionally, it was also tested in the presence of glutathione. Green text denoted acceptable 127 stability and red text denotes unacceptable stability under test conditions. At pH10 regardless of the presence of 128 H2O2, DDD599/BPCA was unfavourably unstable. […]

[3] = Pharmacokinetic analysis in naïve mice; format: in vivo, BALB/c mice
Protocol: DDD291 and DDD881 were then evaluated for in vivo transmission-blocking activity in a mouse model of transmission. […] DDD881 was also administered similarly on day 4 of infection only 30 min prior to mosquito feed in a separate cohort of mice (Supplementary Data 5).
Eight phenylhydrazine-treated mice were infected with P. berghei constitutively expressing GFP. On day 3 of infection, they were assigned into four groups of two mice (DMSO A + B; DDD291 A + B; DDD881 A + B and C + D). Three groups received either 50 mg kg^−1 DDD291, 50 mg kg^−1 DDD881 or DMSO + vehicle control by IP injection. […] The fourth group received a 50 mg kg^−1 DDD881 dose on day 4, 30 min prior to mosquito feed. c Seven days after feeding, mosquitoes were dissected (n = 17–52 per condition) and oocysts recorded by fluorescent microscopy and automated image analysis. Horizontal bars indicate the mean. d PK analysis of DDD881. BALB/c mice were dosed with 50 mg kg^−1 DDD881 (n = 3) and plasma concentrations were monitored over time.

[4] = Aqueous solubility (DMPK); format: physicochemical; conditions: aqueous medium
Protocol: as §1

[5] = system: P. falciparum transmission to Anopheles stephensi mosquitoes; test: P. falciparum standard membrane-feeding assay (SMFA), luciferase oocyst readout; format: in vivo, Plasmodium falciparum; conditions: 10 µM
[6] = Mouse liver microsome clearance; format: in vitro ADME
Protocol: as §1

[7] = Parallel artificial membrane permeability assay (PAMPA); format: in vitro ADME
Protocol: as §1

[8] = mouse, plasma, intraperitoneal, 50 mg kg^−1, BALB/c mice, n = 3

O=C(CCl)Nc1ccc(Br)cc1 [BPCA, N-(4-bromophenyl)-2-chloroacetamide]
prevalence of infection, % of the DMSO control [1]: 25.12%
mean normalised luciferase intensity [1]: 5.27 arbitrary units
remaining at 24 h ([2]; Britton Robinson pH4 buffer + 20M% H2O2, pH 4, pH4 Ox): 100%
remaining at 24 h ([2]; Britton Robinson pH4 buffer, pH 4): 100%
half-life ([2]; Britton Robinson pH4 buffer, pH 4, pH4 = Britton Robinson pH4): > 41.7 days
remaining at 24 h ([2]; Britton Robinson pH6 buffer + 20M% H2O2, pH 6, pH6 Ox): 100%
remaining at 24 h ([2]; Britton Robinson pH6 buffer, pH 6): 100%
remaining at 24 h ([2]; Britton Robinson pH10 buffer + 20M% H2O2, pH 10, pH10 Ox): 87%
remaining at 24 h ([2]; Britton Robinson pH10 buffer, pH 10): 87%
t10% degradation / hours ([2]; GSH): < 1 h
remaining at 24 h ([2]; Phosphate buffer pH7.4 with 5mM Glutathione, pH 7.4, GSH): 0%
t10% degradation / hours ([2]; SGF): 118 h
half-life ([2]; SGF = Simulated Gastric Fluid): 25.3 days
t10% degradation / hours ([2]; SGF Ox): 512 h
half-life ([2]; SGF Ox = Simulated Gastric Fluid + 20M% H2O2): > 41.7 days
remaining at 24 h ([2]; Simulated Gastric Fluid + 20M% H2O2, SGF Ox): 99%
remaining at 24 h ([2]; Simulated Gastric Fluid, SGF): 98%
t10% degradation / hours ([2]; pH4): > 1000 h
half-life ([2]; pH 4, pH4 Ox = Britton Robinson pH4 buffer + 20M% H2O2): > 41.7 days
t10% degradation / hours ([2]; pH4 Ox): > 1000 h
t10% degradation / hours ([2]; pH6): > 1000 h
half-life ([2]; pH 6, pH6 = Britton Robinson pH6 buffer): > 41.7 days
half-life ([2]; pH 6, pH6 Ox = Britton Robinson pH6 buffer + 20M% H2O2): > 41.7 days
t10% degradation / hours ([2]; pH6 Ox): > 1000 h
half-life ([2]; pH 7.4, GSH = Phosphate buffer pH7.4 with 5mM Glutathione): < 0.0417 days
t10% degradation / hours ([2]; pH10): 18 h
half-life ([2]; pH 10, pH10 = Britton Robinson pH10 buffer): 3.92 days
half-life ([2]; pH 10, pH10 Ox = Britton Robinson pH10 buffer + 20M% H2O2): 3.83 days
t10% degradation / hours ([2]; pH10 Ox): 18 h

O=S(=O)(NCC1(O)CCOc2ccccc21)c1ccc(Br)s1 (stereo not shown) [DDD01035881]
Average oocyst intensity ([1]; listed as DDD881): 4.2 and 4.1
Prevalence ([1]; listed as DDD881): 1.4% and 0.0%
plasma concentration ([3]; 50 mg kg^−1, up to 120 min after dosing): ~ 1000 ng ml^−1
Cmax [3, 8]: 1580 ng/mL
Tmax [3, 8]: 0.00346 days
solubility [4]: > 250 µM
mean normalised luciferase intensity ([5]; direct mode): 0.26
prevalence, % of DMSO control ([5]; direct mode): 0.49%
Average oocyst intensity ([5]; mode direct, per experiment): 2.8
Prevalence ([5]; mode direct, per experiment): 0.0%

OC1(CN2CCC(Oc3cccc(C(F)(F)F)c3)CC2)CCNC1 (stereo not shown) [DDD01245291]
prevalence of infection, % of the DMSO control [1]: no infected mosquitoes observed
mean normalised luciferase intensity [1]: 1.37 arbitrary units
Prevalence [1]: 0.0%
Average oocyst intensity ([1]; listed as DDD291): 2.7 and 3.2 and 3.3
solubility [4]: > 250 µM
mouse liver microsome clearance rate [6]: 4.2 ml min^−1 g^−1 Liver
Papp [7]: 0.59 ×10⁻⁶ cm/s
